Reference: ChEMBL document CHEMBL1833866, “Synthesis and evaluation of 1-(4-[¹⁸F]fluoroethyl)-7-(4'-methyl)curcumin with improved brain permeability for β-amyloid plaque imaging” (Bioorg Med Chem Lett, 2011)
Each block holds one compound with its values, some of them ahead of it. Calls of active or inactive are those of the source. The rule behind the calls is not given here.

How the values were obtained:
[1] = Binding affinity to amyloid beta (1 to 42) after 3 hrs using [125I]IMSB by gamma counter method
[2] = Binding affinity to amyloid beta (1 to 40) after 3 hrs using [125I]IMSB by gamma counter method
[3] = Ratio of drug uptake in hippocampus to cerebellum in transgenic Tg2576 mouse brain; settings: in vivo
Femur [4] = assay: Biodistribution in ICR mouse Femur at 1.11 MBq, iv after 2 mins; type: ADME, organism-based; settings: in vivo
Femur [5] = assay: Biodistribution in ICR mouse Femur at 1.11 MBq, iv after 30 mins; type: ADME, organism-based; settings: in vivo, 0.5 h
Femur [6] = assay: Biodistribution in ICR mouse Femur at 1.11 MBq, iv after 60 mins; type: ADME, organism-based; settings: in vivo, 1 h
Femur [7] = assay: Biodistribution in ICR mouse Femur at 1.11 MBq, iv after 120 mins; type: ADME, organism-based; settings: in vivo, 2 h
Brain [8] = assay: Biodistribution in ICR mouse Brain at 1.11 MBq, iv after 2 mins; type: ADME, organism-based; settings: in vivo
Brain [9] = assay: Biodistribution in ICR mouse Brain at 1.11 MBq, iv after 30 mins; type: ADME, organism-based; settings: in vivo, 0.5 h
Brain [10] = assay: Biodistribution in ICR mouse Brain at 1.11 MBq, iv after 60 mins; type: ADME, organism-based; settings: in vivo, 1 h
Brain [11] = assay: Biodistribution in ICR mouse Brain at 1.11 MBq, iv after 120 mins; type: ADME, organism-based; settings: in vivo, 2 h
[12] = Octanol-water partition coefficient, log P of the compound by TLC analysis; type: physicochemical
Blood [13] = assay: Biodistribution in ICR mouse blood at 1.11 MBq, iv after 2 mins; type: ADME, organism-based; settings: in vivo
Blood [14] = assay: Biodistribution in ICR mouse blood at 1.11 MBq, iv after 30 mins; type: ADME, organism-based; settings: in vivo, 0.5 h
Blood [15] = assay: Biodistribution in ICR mouse blood at 1.11 MBq, iv after 60 mins; type: ADME, organism-based; settings: in vivo, 1 h
Blood [16] = assay: Biodistribution in ICR mouse blood at 1.11 MBq, iv after 120 mins; type: ADME, organism-based; settings: in vivo, 2 h
Heart [17] = assay: Biodistribution in ICR mouse heart at 1.11 MBq, iv after 2 mins; type: ADME, organism-based; settings: in vivo
Heart [18] = assay: Biodistribution in ICR mouse heart at 1.11 MBq, iv after 30 mins; type: ADME, organism-based; settings: in vivo, 0.5 h
Heart [19] = assay: Biodistribution in ICR mouse heart at 1.11 MBq, iv after 60 mins; type: ADME, organism-based; settings: in vivo, 1 h
Heart [20] = assay: Biodistribution in ICR mouse heart at 1.11 MBq, iv after 120 mins; type: ADME, organism-based; settings: in vivo, 2 h
Lung [21] = assay: Biodistribution in ICR mouse Lung at 1.11 MBq, iv after 2 mins; type: ADME, organism-based; settings: in vivo
Lung [22] = assay: Biodistribution in ICR mouse Lung at 1.11 MBq, iv after 30 mins; type: ADME, organism-based; settings: in vivo, 0.5 h
Lung [23] = assay: Biodistribution in ICR mouse Lung at 1.11 MBq, iv after 60 mins; type: ADME, organism-based; settings: in vivo, 1 h
Lung [24] = assay: Biodistribution in ICR mouse Lung at 1.11 MBq, iv after 120 mins; type: ADME, organism-based; settings: in vivo, 2 h
Liver [25] = assay: Biodistribution in ICR mouse Liver at 1.11 MBq, iv after 2 mins; type: ADME, organism-based; settings: in vivo
Liver [26] = assay: Biodistribution in ICR mouse Liver at 1.11 MBq, iv after 30 mins; type: ADME, organism-based; settings: in vivo, 0.5 h
Liver [27] = assay: Biodistribution in ICR mouse Liver at 1.11 MBq, iv after 60 mins; type: ADME, organism-based; settings: in vivo, 1 h
Liver [28] = assay: Biodistribution in ICR mouse Liver at 1.11 MBq, iv after 120 mins; type: ADME, organism-based; settings: in vivo, 2 h
Spleen [29] = assay: Biodistribution in ICR mouse Spleen at 1.11 MBq, iv after 2 mins; type: ADME, organism-based; settings: in vivo
Spleen [30] = assay: Biodistribution in ICR mouse Spleen at 1.11 MBq, iv after 30 mins; type: ADME, organism-based; settings: in vivo, 0.5 h
Spleen [31] = assay: Biodistribution in ICR mouse Spleen at 1.11 MBq, iv after 60 mins; type: ADME, organism-based; settings: in vivo, 1 h
Spleen [32] = assay: Biodistribution in ICR mouse Spleen at 1.11 MBq, iv after 120 mins; type: ADME, organism-based; settings: in vivo, 2 h
Kidney [33] = assay: Biodistribution in ICR mouse Kidney at 1.11 MBq, iv after 2 mins; type: ADME, organism-based; settings: in vivo
Kidney [34] = assay: Biodistribution in ICR mouse Kidney at 1.11 MBq, iv after 30 mins; type: ADME, organism-based; settings: in vivo, 0.5 h
Kidney [35] = assay: Biodistribution in ICR mouse Kidney at 1.11 MBq, iv after 60 mins; type: ADME, organism-based; settings: in vivo, 1 h
Kidney [36] = assay: Biodistribution in ICR mouse Kidney at 1.11 MBq, iv after 120 mins; type: ADME, organism-based; settings: in vivo, 2 h
Muscle tissue [37] = assay: Biodistribution in ICR mouse Muscle at 1.11 MBq, iv after 2 mins; type: ADME, organism-based; settings: in vivo
Muscle tissue [38] = assay: Biodistribution in ICR mouse Muscle at 1.11 MBq, iv after 30 mins; type: ADME, organism-based; settings: in vivo, 0.5 h
Muscle tissue [39] = assay: Biodistribution in ICR mouse Muscle at 1.11 MBq, iv after 60 mins; type: ADME, organism-based; settings: in vivo, 1 h
Muscle tissue [40] = assay: Biodistribution in ICR mouse Muscle at 1.11 MBq, iv after 120 mins; type: ADME, organism-based; settings: in vivo, 2 h
Mus musculus [41] = assay: In vivo binding affinity to amyloid beta (1 to 42) in double transgenic APP/PS-1 mouse brain at 100 uM after 30 mins by microscopy; type: functional, organism-based
Mus musculus [42] = assay: In vivo binding affinity to amyloid beta (1 to 42) in wild type mouse brain at 100 uM after 30 mins by microscopy; type: functional, organism-based

Ki [1]: 4.65 nM
SMILES: COc1cc(/C=C/C(=O)/C=C(O)/C=C/c2ccc(OCCOCCF)c(OC)c2)ccc1O

Ki [1]: 4.44 nM
SMILES: COc1cc(/C=C/C(=O)/C=C(O)/C=C/c2ccc(OCCOCCOCCF)c(OC)c2)ccc1O

Ki [1]: 3.01 nM
SMILES: COc1ccc(/C=C/C(=O)/C=C(O)/C=C/c2ccc(OCCOCCF)c(OC)c2)cc1OC

Ki [2]: 0.07 nM
Ratio [3]: 3
SMILES: COc1cc(/C=C/C(O)=C/C(=O)/C=C/c2ccc(OCCC[18F])c(OC)c2)ccc1O

Ki [1]: 2.69 nM
SMILES: COc1ccc(/C=C/C(=O)/C=C(O)/C=C/c2ccc(OCCCF)c(OC)c2)cc1OC

Drug uptake (Femur [4]): 1.86 % ID/g
Drug uptake (Femur [5]): 1.08 % ID/g
Drug uptake (Femur [6]): 1 % ID/g
Drug uptake (Femur [7]): 1.62 % ID/g
Drug uptake (Brain [8]): 1.44 % ID/g
Drug uptake (Brain [9]): 0.45 % ID/g
Drug uptake (Brain [10]): 0.43 % ID/g
Drug uptake (Brain [11]): 0.29 % ID/g
logP [12]: 2.4
Drug uptake (Blood [13]): 9.76 % ID/g
Drug uptake (Blood [14]): 1.26 % ID/g
Drug uptake (Blood [15]): 0.89 % ID/g
Drug uptake (Blood [16]): 0.67 % ID/g
Drug uptake (Heart [17]): 7.18 % ID/g
Drug uptake (Heart [18]): 1.68 % ID/g
Drug uptake (Heart [19]): 1.3 % ID/g
Drug uptake (Heart [20]): 1.54 % ID/g
Drug uptake (Lung [21]): 23.78 % ID/g
Drug uptake (Lung [22]): 3.94 % ID/g
Drug uptake (Lung [23]): 2.27 % ID/g
Drug uptake (Lung [24]): 2.19 % ID/g
Drug uptake (Liver [25]): 38.83 % ID/g
Drug uptake (Liver [26]): 43.02 % ID/g
Drug uptake (Liver [27]): 26.83 % ID/g
Drug uptake (Liver [28]): 12.51 % ID/g
Drug uptake (Spleen [29]): 16.41 % ID/g
Drug uptake (Spleen [30]): 20.8 % ID/g
Drug uptake (Spleen [31]): 10.59 % ID/g
Drug uptake (Spleen [32]): 8.08 % ID/g
Drug uptake (Kidney [33]): 10.95 % ID/g
Drug uptake (Kidney [34]): 4.01 % ID/g
Drug uptake (Kidney [35]): 2.25 % ID/g
Drug uptake (Kidney [36]): 1.42 % ID/g
Drug uptake (Muscle tissue [37]): 0.89 % ID/g
Drug uptake (Muscle tissue [38]): 0.76 % ID/g
Drug uptake (Muscle tissue [39]): 0.47 % ID/g
Drug uptake (Muscle tissue [40]): 0.37 % ID/g
SMILES: COc1ccc(/C=C/C(=O)/C=C(O)/C=C/c2ccc(OCC[18F])c(OC)c2)cc1OC

Ki [1]: 2.12 nM
SMILES: COc1ccc(/C=C/C(=O)/C=C(O)/C=C/c2ccc(OCCF)c(OC)c2)cc1OC
Activity (Mus musculus [41]): Active
Activity (Mus musculus [42]): inactive

Further lines, the compound ahead of its results:

SMILES: O=C(O)c1cc(/N=N/c2ccc(-c3ccc(/N=N/c4ccc(O)c(C(=O)O)c4)cc3)cc2)ccc1O [CHRYSAMINE G]
Ki [1]: 0.43 nM

SMILES: COc1cc(/C=C/C(=O)CC(=O)/C=C/c2ccc(O)c(OC)c2)ccc1O [CURCUMIN]
Ki [1]: 3.57 nM

SMILES: [11CH3]Nc1ccc(-c2nc3ccc(O)cc3s2)cn1
Ki [1]: 1.7 nM

SMILES: COc1ccc(/C=C/c2ccc(/C=C/c3ccc(OC)c(C(=O)O)c3)c([125I])c2)cc1C(=O)O
Kd [1]: 1.19 nM
